{"source": "patent US20260315609A1", "about": "“MIXED VASOPRESSIN RECEPTOR AGONIST-ANTAGONIST FOR TREATING END-STAGE LIVER DISEASE AND COMPLICATIONS ASSOCIATED THEREOF” (FERRING B.V., priority 2022, published 2026)", "key": {"[1]": {"assay": "M1 formation, single dose subcutaneous infusion in rats", "format": "in vivo, rat", "details": "s.c. infusion", "excerpt": "The incision for the mini-pump was on the cranial right side of the spine, a trocar or hemostats may be inserted to create a subcutaneous pocket, and the pump inserted into the subcutaneous pocket with the delivery port of the mini-pump pointing cranially. The doses were given into mid-dorsal area via surgical implantation of the pump filled with test article. Following insertion of the implant, a 4 cm×4 cm area surrounding the pump will be delineated and designated as the test site. The test site will be delineated and remarked as necessary thereafter.\nBlood samples were collected from each rat at various timepoints, including 0.25 hour (hr), 1 hr, 3 hr, 7 hr, 24 hr, 25 hr, 27 hr, and 29 hr."}, "[2]": {"test_system": "methionine/choline-deficient (MCD) diet rats", "assay": "MAP / ΔMAP in methionine/choline-deficient (MCD) diet rats", "format": "in vivo, rat", "details": "for Δ MAP (mean): SC, MCD diet rats", "method": "The terlipressin dose was 100 μg/kg.\nData were evaluated as change […] from baseline."}, "[3]": {"assay": "Preceding clinical study, Cmax", "format": "in vivo, human", "details": "0.3 mg", "method": "The originally planned escalating doses were 0.1, 0.3, 1, 3, 6, and 10 mg, respectively. […] The doses and/or infusion rates could be adjusted based on recommendations from the SRC."}, "vasopressin V1a receptor": {"test_system": "vasopressin V1a receptor", "assay": "Pharmacodynamics (blood pressure, MAP, pulse rate, peripheral blood flow, cardiac output, urine volume) in healthy subjects", "format": "in vivo, human", "method": "In some embodiments, MAP is calculated from measurements of systolic blood pressure and diastolic blood pressure. In some embodiments, MAP is calculated when taking into account the pressure during a single cardiac cycle. In some embodiments, MAP is ⅓ (systolic blood pressure−diastolic blood pressure)+diastolic blood pressure.\nIn some instances, endpoints of the study were: vital signs (e.g., supine blood pressure, pulse, and body temperature), electrocardiogram (ECG) (e.g., intervals, rhythm, and morphology), cardiac function (e.g., cardiac output using echocardiography), peripheral blood flow/tissue perfusion (e.g., by skin color), venous blood gases (e.g., lactate), urinary output, clinical chemistry, hematology, hemostasis, and urinalysis, adverse events (AEs) (e.g., type, frequency, and intensity), pharmacokinetics (e.g., AUC, AUCt, AUCτ, % Extrap AUC, Cmax, tmax, CL, Vz, t1/2, MRT, Vss, F, Ae, and CLR), and metabolite pattern in plasma and urine."}, "[4]": {"assay": "Tolerability in healthy monkeys", "format": "in vivo, cynomolgus monkey", "details": "non-human primates", "method": "Clinical observations were made before and after dosing. IV administration\nThe data reported herein were collected over 19 dosing sessions of four animals each, using a total of six monkeys. Animals were repeat dosed in a crossover design with at least one animal receiving vehicle for each round; the animal receiving vehicle was varied between rounds. A 48- to 72-h washout period was used between dosing sessions. Animals were observed by camera for ~1 h before dosing (covering the baseline period) and up to 3 h after dosing."}}, "note": "Starred links: 1 amine or outer side, 2 acyl side, 3 side chain; linkers in the order of their positions; H or OH if unused. Positions of bridges follow the written chain, without caps; N, C: chain ends. Non-standard residues stand in square brackets, D forms with d. Residues, ends and D or L forms follow the SMILES beside them. Chains are numbered I, II in the order given. *: point of attachment. isoGln = NC(=O)[C@H](CCC(=O)[*:2])N[*:1]; εLys = N[C@@H](CCCCN[*:1])C(=O)[*:2]; Dab = NCC[C@H](N)C(=O)O; PhAc = O=C(Cc1ccccc1)*"}
{"compound": "CC[C@H](C)[C@@H]1NC(=O)[C@H](Cc2ccccc2)NC(=O)[C@@H](N)CSSC[C@@H](C(=O)N2CCC[C@H]2C(=O)N[C@@H](CCNC(=O)[C@@H](N)CCCCNC(=O)[C@H](CCCCNC(C)=O)NC(=O)CC[C@H](NC(=O)[C@H](CCCNC(=N)N)NC(=O)[C@@H]2CCCN2C(=O)[C@H](C)NC(=O)[C@H](CC(N)=O)NC(=O)[C@H](CCC(N)=O)NC(=O)[C@H](Cc2ccccc2)NC(=O)[C@@H](Cc2ccc(OC)cc2)NC(=O)Cc2ccccc2)C(N)=O)C(=O)NCC(N)=O)NC(=O)[C@H](CC(N)=O)NC(=O)[C@H](CCC(N)=O)NC1=O", "note": "[Compound 1, Glycinamide, L-cysteinyl-L-phenylalanyl-L-isoleucyl-L-glutaminyl-L-asparaginyl-L-cysteinyl-L-prolyl-N4-(phenylacetyl-O-methyl-D-tyrosyl-L-phenylalanyl-L-glutaminyl-L-asparaginyl-L-alanyl-L-prolyl-L-arginyl-L-isoglutamyl-N5-acetyl-L-lysyl-L-ε-lysyl)-L-2,4-diaminobutyryl-, cyclic (1→6)-disulfide] (I: H-CFIQNCP[Dab]G-NH2 / II: PhAc-[dY](Me)FQNAPR[isoGln]K(Ac)[εLys]; disulfide I:1-I:6; amide I:8-II:C)", "values": [{"measurement": "metabolised", "setting": "[1]; rat, plasma, sc, 4.8 mg/kg, rats", "value": "< 20", "unit": "%"}, {"measurement": "adverse events", "setting": "[1]; rats and mini-pigs", "value": "No relevant adverse events were reported"}, {"measurement": "Δ MAP (mean)", "setting": "[2]; 25 μg/kg, 0 min", "value": 0.0, "unit": "mmHg"}, {"measurement": "Δ MAP (mean)", "setting": "[2]; 25 μg/kg, 1 min", "value": 1.1, "unit": "mmHg"}, {"measurement": "Δ MAP (mean)", "setting": "[2]; 25 μg/kg, 2 min", "value": 1.9, "unit": "mmHg"}, {"measurement": "Δ MAP (mean)", "setting": "[2]; 25 μg/kg, 3 min", "value": 2.6, "unit": "mmHg"}, {"measurement": "Δ MAP (mean)", "setting": "[2]; 25 μg/kg, 5 min", "value": 3.5, "unit": "mmHg"}, {"measurement": "Δ MAP (mean)", "setting": "[2]; 25 μg/kg, 7 min", "value": 4.0, "unit": "mmHg"}, {"measurement": "Δ MAP (mean)", "setting": "[2]; 25 μg/kg, 10 min", "value": 4.8, "unit": "mmHg"}, {"measurement": "Δ MAP (mean)", "setting": "[2]; 25 μg/kg, 15 min", "value": 5.3, "unit": "mmHg"}, {"measurement": "Δ MAP (mean)", "setting": "[2]; 25 μg/kg, 20 min", "value": 5.2, "unit": "mmHg"}, {"measurement": "Δ MAP (mean)", "setting": "[2]; 25 μg/kg, 30 min", "value": 4.4, "unit": "mmHg"}, {"measurement": "Δ MAP (mean)", "setting": "[2]; 25 μg/kg, 60 min", "value": 3.0, "unit": "mmHg"}, {"measurement": "Δ MAP (mean)", "setting": "[2]; 25 μg/kg, 90 min", "value": 3.1, "unit": "mmHg"}, {"measurement": "Δ MAP (mean)", "setting": "[2]; 100 μg/kg, 0 min", "value": 0.0, "unit": "mmHg"}, {"measurement": "Δ MAP (mean)", "setting": "[2]; 100 μg/kg, 1 min", "value": 2.0, "unit": "mmHg"}, {"measurement": "Δ MAP (mean)", "setting": "[2]; 100 μg/kg, 2 min", "value": 3.5, "unit": "mmHg"}, {"measurement": "Δ MAP (mean)", "setting": "[2]; 100 μg/kg, 3 min", "value": 4.4, "unit": "mmHg"}, {"measurement": "Δ MAP (mean)", "setting": "[2]; 100 μg/kg, 5 min", "value": 7.0, "unit": "mmHg"}, {"measurement": "Δ MAP (mean)", "setting": "[2]; 100 μg/kg, 7 min", "value": 8.5, "unit": "mmHg"}, {"measurement": "Δ MAP (mean)", "setting": "[2]; 100 μg/kg, 10 min", "value": 9.9, "unit": "mmHg"}, {"measurement": "Δ MAP (mean)", "setting": "[2]; 100 μg/kg, 15 min", "value": 11.0, "unit": "mmHg"}, {"measurement": "Δ MAP (mean)", "setting": "[2]; 100 μg/kg, 20 min", "value": 11.3, "unit": "mmHg"}, {"measurement": "Δ MAP (mean)", "setting": "[2]; 100 μg/kg, 30 min", "value": 10.6, "unit": "mmHg"}, {"measurement": "Δ MAP (mean)", "setting": "[2]; 100 μg/kg, 60 min", "value": 10.9, "unit": "mmHg"}, {"measurement": "Δ MAP (mean)", "setting": "[2]; 100 μg/kg, 90 min", "value": 9.2, "unit": "mmHg"}, {"measurement": "Δ MAP (mean)", "setting": "[2]; 500 μg/kg, 0 min", "value": 0.0, "unit": "mmHg"}, {"measurement": "Δ MAP (mean)", "setting": "[2]; 500 μg/kg, 1 min", "value": 2.2, "unit": "mmHg"}, {"measurement": "Δ MAP (mean)", "setting": "[2]; 500 μg/kg, 2 min", "value": 4.5, "unit": "mmHg"}, {"measurement": "Δ MAP (mean)", "setting": "[2]; 500 μg/kg, 3 min", "value": 6.4, "unit": "mmHg"}, {"measurement": "Δ MAP (mean)", "setting": "[2]; 500 μg/kg, 5 min", "value": 9.1, "unit": "mmHg"}, {"measurement": "Δ MAP (mean)", "setting": "[2]; 500 μg/kg, 7 min", "value": 12.1, "unit": "mmHg"}, {"measurement": "Δ MAP (mean)", "setting": "[2]; 500 μg/kg, 10 min", "value": 14.7, "unit": "mmHg"}, {"measurement": "Δ MAP (mean)", "setting": "[2]; 500 μg/kg, 15 min", "value": 13.6, "unit": "mmHg"}, {"measurement": "Δ MAP (mean)", "setting": "[2]; 500 μg/kg, 20 min", "value": 13.7, "unit": "mmHg"}, {"measurement": "Δ MAP (mean)", "setting": "[2]; 500 μg/kg, 30 min", "value": 11.4, "unit": "mmHg"}, {"measurement": "Δ MAP (mean)", "setting": "[2]; 500 μg/kg, 60 min", "value": 9.1, "unit": "mmHg"}, {"measurement": "Δ MAP (mean)", "setting": "[2]; 500 μg/kg, 90 min", "value": 10.2, "unit": "mmHg"}, {"measurement": "highest observed absolute MAP", "setting": "[2]; SC 25 μg/kg", "value": "79.2±1.4", "unit": "mmHg"}, {"measurement": "highest observed absolute MAP", "setting": "[2]; SC 100 μg/kg", "value": "86.8±2.5", "unit": "mmHg"}, {"measurement": "highest observed absolute MAP", "setting": "[2]; SC 500 μg/kg", "value": "90.4±3.7", "unit": "mmHg"}, {"measurement": "maximum ΔMAP", "setting": "[2]; SC 25 g/kg (so in the source)", "value": "5.3±1.1", "unit": "mmHg"}, {"measurement": "Cmax", "setting": "[3]; 6 hour i.v. infusion", "value": "up to 6 ng/mL"}, {"measurement": "Cmax", "setting": "[3]; s.c. injection", "value": "up to 2.5 ng/mL"}, {"measurement": "reduction in cardiac output, mean", "setting": "vasopressin V1a receptor; 0.9 mg i.v., echocardiography", "value": "3%-12"}, {"measurement": "individual decreases in cardiac output", "setting": "vasopressin V1a receptor; any dose, i.v. and s.c., echocardiography", "value": "20-25%"}, {"measurement": "AE of moderate decreased cardiac output", "setting": "vasopressin V1a receptor; i.v. 0.1 mg", "value": "One"}, {"measurement": "subjects with hyperemia", "setting": "vasopressin V1a receptor; i.v. 0.45 mg, 30 and 90 minutes", "value": 1, "unit": "subject"}, {"measurement": "urinary volume", "setting": "vasopressin V1a receptor; i.v. and s.c.", "value": "no apparent dose related trends or changes"}, {"measurement": "cardiac output versus placebo", "setting": "vasopressin V1a receptor; i.v., except 0.1 mg group", "value": "decreased"}, {"measurement": "subjects with pallor", "setting": "vasopressin V1a receptor; i.v., mainly 0.45, 0.6 and 0.9 mg", "value": 18, "unit": "subjects"}, {"measurement": "cardiac output", "setting": "vasopressin V1a receptor; s.c. 0.1 and 0.3 mg", "value": "slight reduction"}, {"measurement": "subjects with pallor", "setting": "vasopressin V1a receptor; s.c. 0.1 and 0.3 mg, after 1st dose", "value": "About 30%"}, {"measurement": "effect on body temperature", "setting": "[4]", "value": "no apparent Compound 1-related effect on body temperature"}, {"measurement": "tolerability", "setting": "[4]; single-dose SC and IV bolus", "value": "well tolerated"}]}
